According to ChEMBL document CHEMBL5244255, “An insight on medicinal attributes of 1,2,4-triazoles” (Eur J Med Chem, 2020):
≈ marks a conversion by molar mass, not a printed value.

How the values were obtained:
Staphylococcus aureus [1] = assay: Antibacterial activity against Staphylococcus aureus 6538 assessed as bacterial growth inhibition incubated for 24 hrs; assay type: functional
Staphylococcus aureus [2] = assay: Antibacterial activity against Methicillin-resistant Staphylococcus aureus assessed as bacterial growth inhibition incubated for 24 hrs; assay type: functional
HCT-116 = assay: Anticancer activity against human HCT-116 cells assessed as cell growth inhibition
[3] = test system: Mycobacterium tuberculosis; assay: Antimycobacterial activity against Mycobacterium tuberculosis H37Rv measured after 7 days; assay type: functional; details: 168 h, time 7 day
[4] = test system: Mycobacterium tuberculosis; assay: Antimycobacterial activity against Mycobacterium tuberculosis H37Rv by test tube dilution technique; assay type: functional
Rattus norvegicus [5] = assay: Antiinflammatory activity in rat assessed as reduction in edema at 17 mg/kg, ip measured after 5 hrs relative to control; assay type: functional; parameters: scale not given: the % may be the effect or the level left
[6] = test system: Middle East respiratory syndrome-related coronavirus; assay: Antiviral activity of Middle East respiratory syndrome coronavirus; assay type: functional, organism-based
[7] = Protection index, ratio of TD50 for neurotoxicity in po dosed mouse to ED50 for anticonvulsant activity in ip dosed mouse; assay type: toxicity, organism-based; details: in vivo, read-out: Ratio TD50/ED50
Mus musculus [8] = assay: Anticonvulsant activity in po dosed mouse assessed as MES-induced seizures; assay type: functional
Plasmodium falciparum [9] = assay: microbe, parasite or virus in culture
Plasmodium falciparum [10] = assay: Antimalarial activity against Plasmodium falciparum; assay type: functional, organism-based; details: Plasmodium falciparum; read-out: IC50
Jurkat = assay: Antiproliferative activity against human jurkat cells assessed as cell growth inhibition incubated for 48 hrs by MTT assay; assay type: functional, cell-based
RS4-11 = assay: Antiproliferative activity against human RS4-11 cells assessed as cell growth inhibition incubated for 48 hrs by MTT assay; assay type: functional, cell-based; details: RS4-11, 48 h
HT-29 = assay: Antiproliferative activity against human HT-29 cells assessed as cell growth inhibition incubated for 48 hrs by MTT assay; assay type: functional, cell-based; details: HT-29, 48 h
Tubulin [11] = molecular target: Tubulin (Bos taurus, UniProt Q6B856+Q862L2+Q862F3); assay: Inhibition of bovine brain tubulin polymerization incubated for 20 mins in presence of GTP
HeLa = assay: Antiproliferative activity against human HeLa cells assessed as cell growth inhibition incubated for 48 hrs by MTT assay; assay type: functional, cell-based
MCF7 [12] = assay: Antiproliferative activity against human MCF7 cells assessed as cell growth inhibition incubated for 48 hrs by MTT assay; assay type: functional, cell-based; details: MCF7, 48 h
Leishmania major [13] = assay: Potency index, ratio of test compound IC50 to miltefosine IC50 for antileishmanial activity against promastigotes stage of leishmania major; assay type: functional
Leishmania major [14] = assay: Potency index, ratio of test compound IC50 to amphotericin B IC50 for antileishmanial activity against promastigotes stage of leishmania major; assay type: functional
Leishmania major [15] = assay: Antileishmanial activity against promastigotes stage of Leishmania major; assay type: functional, organism-based
Rattus norvegicus [16] = assay: Antiinflammatory activity in rat assessed as reduction in xylene induced edema at 10 mg/kg, po by CPE test relative to control; assay type: functional; parameters: scale not given: the % may be the effect or the level left
Rattus norvegicus [17] = species: Rattus norvegicus; assay: Bronchodilator activity in Sprague-Dawley rat; assay type: functional, organism-based
[18] = Protection index, ratio of TD50 for neurotoxicity in ip dosed mouse to ED50 for anticonvulsant activity in ip dosed mouse; assay type: toxicity, organism-based; details: in vivo, read-out: Ratio TD50/ED50
Mus musculus [19] = assay: Anticonvulsant activity in ip dosed mouse; assay type: functional
MCF7 [20] = assay: Anticancer activity against human MCF7 cells assessed a cell growth inhibition incubated for 48 hrs by SRB assay; assay type: functional, cell-based; details: MCF7, 48 h
[21] = molecular target: Epidermal growth factor receptor (Homo sapiens, UniProt P00533); assay: Inhibition of EGFR (unknown origin) […] insect sf9 cells incubated for 1 hrs in presence of ATP
Tubulin [22] = assay: Inhibition of tubulin (unknown origin); assay type: protein-complex assay, Homo sapiens
[23] = Inhibition of BRAF V600E mutant (unknown origin) incubated for 25 mins in presence of ATP by ELISA assay; parameters: species or system Homo sapiens
Plasmodium falciparum [24] = assay: Antimalarial activity against Chloroquine resistant Plasmodium falciparum W2; assay type: functional, organism-based
DNA gyrase = DNA gyrase (Escherichia coli, UniProt P0AES4+P0AES6); assay: Inhibition of Escherichia coli DNA gyrase supercoiling activity by Microplate Assay kit method; assay type: protein-complex assay
[25] = test system: Xanthomonas oryzae pv. oryzae; assay: Antibacterial activity against Xanthomonas oryzae pv. oryzae assessed as bacterial growth inhibition by turbidimetric method; assay type: functional, organism-based
[26] = Inhibition of 5 alpha reductase (unknown origin)
Rattus norvegicus [27] = assay: Antiinflammatory activity in rat assessed as reduction in carrageenan induced edema at 10 mg/kg, po measured after 4 to 5 hrs relative to control; assay type: functional; parameters: scale not given: the % may be the effect or the level left; details: time 4-5 hrs

Chain of Epidermal growth factor receptor (P00533 whole entry): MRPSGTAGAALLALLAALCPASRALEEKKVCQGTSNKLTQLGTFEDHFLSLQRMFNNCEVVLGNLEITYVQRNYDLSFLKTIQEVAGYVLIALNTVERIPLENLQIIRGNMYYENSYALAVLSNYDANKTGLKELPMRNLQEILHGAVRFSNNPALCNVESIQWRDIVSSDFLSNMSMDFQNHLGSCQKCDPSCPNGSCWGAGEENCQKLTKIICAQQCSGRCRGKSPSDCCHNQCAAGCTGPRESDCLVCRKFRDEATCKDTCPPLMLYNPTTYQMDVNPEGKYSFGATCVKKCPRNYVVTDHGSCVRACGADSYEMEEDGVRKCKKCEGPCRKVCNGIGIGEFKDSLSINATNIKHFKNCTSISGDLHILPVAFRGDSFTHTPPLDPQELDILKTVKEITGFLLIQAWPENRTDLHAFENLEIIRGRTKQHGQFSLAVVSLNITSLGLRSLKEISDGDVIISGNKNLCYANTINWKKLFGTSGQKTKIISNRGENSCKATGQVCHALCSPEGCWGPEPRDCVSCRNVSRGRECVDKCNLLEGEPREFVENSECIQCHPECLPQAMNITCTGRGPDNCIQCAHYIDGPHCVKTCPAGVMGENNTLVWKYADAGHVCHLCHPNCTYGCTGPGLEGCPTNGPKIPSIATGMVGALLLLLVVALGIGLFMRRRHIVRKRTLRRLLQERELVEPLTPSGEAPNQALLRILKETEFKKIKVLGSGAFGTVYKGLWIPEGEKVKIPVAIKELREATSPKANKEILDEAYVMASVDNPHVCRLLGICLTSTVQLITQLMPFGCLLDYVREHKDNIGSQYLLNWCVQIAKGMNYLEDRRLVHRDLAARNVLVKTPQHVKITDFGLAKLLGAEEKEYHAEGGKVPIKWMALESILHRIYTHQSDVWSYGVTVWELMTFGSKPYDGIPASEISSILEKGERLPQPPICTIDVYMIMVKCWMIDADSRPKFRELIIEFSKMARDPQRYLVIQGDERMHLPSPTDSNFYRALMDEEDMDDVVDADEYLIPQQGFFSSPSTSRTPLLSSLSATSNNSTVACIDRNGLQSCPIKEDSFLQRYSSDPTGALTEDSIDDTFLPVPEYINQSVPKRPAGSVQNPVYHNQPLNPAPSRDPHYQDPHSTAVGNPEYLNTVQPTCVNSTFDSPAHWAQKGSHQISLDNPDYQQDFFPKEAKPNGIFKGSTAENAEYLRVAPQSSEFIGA

Structure (SMILES): CSc1nc(Cl)cc(Sc2nnc(-c3cc(C(F)(F)F)cc(C(F)(F)F)c3)[nH]2)n1
- MIC (Staphylococcus aureus [1]): 1.8 µM (≈ 0.849 µg/mL)
- MIC (Staphylococcus aureus [2]): 0.75 µg/mL (≈ 1.59 µM)

Structure (SMILES): O=C(CCSc1nnc2n(Cc3ccccc3)c(=O)c3c4c(sc3n12)CCCC4)N1CCN(c2ccccc2)CC1
- IC50 (HCT-116): 6120 nM

Structure (SMILES): CC[C@@H](CO)NCCN[C@@H](CC)CO [ETHAMBUTOL]
- MIC [3]: 6.25 µg/mL (≈ 30.6 µM)

Structure (SMILES): c1cncc(-c2nn3c(COc4cnccn4)nnc3s2)c1
- MIC [4]: 0.4 µg/mL (≈ 1.28 µM)

Structure (SMILES): COc1ccc(-c2cc(-c3nnc(SCC(=O)Nc4ccc(/C(C)=N/O)cc4)n3-c3ccccc3)c3ccccc3n2)cc1
- Activity (Rattus norvegicus [5]): 100%

Structure (SMILES): Sc1nnc(NNc2ccc(Cl)cc2)n1NC1C=CCC1 (stereo not given)
- IC50 [6]: 510 nM

Structure (SMILES): O=c1c2ccccc2n2cnnc2n1-c1ccc(Cl)cc1
- selectivity ratio [7]: > 25.5
- ED50 (Mus musculus [8]): 88 mg/kg

Structure (SMILES): O=c1c2c3c(sc2n2c(CN4CCN(c5ccc(Cl)cc5)CC4)nnc2n1Cc1ccccc1)CCCC3
- IC50 (HCT-116): 6560 nM

Structure (SMILES): COc1ccc(-c2cc(-c3nnc(SCC(=O)Nc4ccc(/C(C)=N/O)cc4)n3-c3ccccc3)c3cc(C)ccc3n2)cc1
- Activity (Rattus norvegicus [5]): 101%

Structure (SMILES): C=C[C@H]1CN2CC[C@H]1C[C@H]2[C@H](O)c1ccnc2ccc(OC)cc12 [QUININE]
- IC50 (Plasmodium falciparum [9]): 0.268 µg/mL (≈ 0.826 µM)
- IC50 (Plasmodium falciparum [10]): 286 nM

Structure (SMILES): COc1cc(C(=O)n2nc(-c3ccc(C)cc3)nc2N)cc(OC)c1OC
- IC50 (Jurkat): < 1000 nM
- IC50 (RS4-11): < 1000 nM
- IC50 (HT-29): < 1000 nM
- IC50 (Tubulin [11]): 660 nM
- IC50 (HeLa): < 1000 nM
- IC50 (MCF7 [12]): < 1000 nM

Structure (SMILES): NC1=NNC(c2ccccc2O)N1C(Cc1cc2ccccc2[nH]1)C(=O)O (stereo not given)
- Ratio IC50 (Leishmania major [13]): 36
- Ratio IC50 (Leishmania major [14]): 36
- IC50 (Leishmania major [15]): 0.0312 µg/mL (≈ 0.0854 µM)

Structure (SMILES): Fc1cc(F)cc(-c2nn3c(CN4c5ccccc5Sc5ccccc54)nnc3s2)c1
- Activity (Rattus norvegicus [16]): 82.24%

Structure (SMILES): Cc1nc2[nH]cc(-c3n[nH]c(=S)n3-c3ccccc3)c(=O)n2n1
- EC50 (Rattus norvegicus [17]): 18600 nM

Structure (SMILES): C=Cn1c(SCC(=O)Nc2ccc(/C(C)=N/O)cc2)nnc1-c1cc(-c2ccc(OC)cc2)nc2ccccc12
- Activity (Rattus norvegicus [5]): 111%

Structure (SMILES): NC(=O)N1c2ccccc2C=Cc2ccccc21 [CARBAMAZEPINE]
- selectivity ratio [18]: 6.4
- ED50 (Mus musculus [19]): 11.8 mg/kg

Structure (SMILES): CC/C(=C(\c1ccccc1)c1ccc(OCCN(C)C)cc1)c1ccccc1 [TAMOXIFEN]
- IC50 (MCF7 [20]): 8.38 µg/mL (≈ 22.6 µM)

Structure (SMILES): COc1ccc(C(=O)n2nc(-c3ccncc3)nc2N)cc1
- IC50 [21]: 4600 nM
- IC50 (Tubulin [22]): 872 nM
- IC50 [23]: 1800 nM

Structure (SMILES): COc1ccc(Nc2cc(C)nc3nc(C(F)(F)F)nn23)cc1
- IC50 (Plasmodium falciparum [24]): 23 nM

Structure (SMILES): O=[N+]([O-])c1ncn(CCCCNS(=O)(=O)c2sccc2Cl)n1
- MIC [3]: 3.13 µg/mL (≈ 8.56 µM)

Structure (SMILES): Nc1cc(Cl)c(S(N)(=O)=O)cc1-c1nnc(S)n1-c1ccccc1
- IC50 (Plasmodium falciparum [9]): 0.023 µg/mL (≈ 0.0602 µM)

Structure (SMILES): CCn1cc(-c2nc(/N=C/c3ccc(F)cc3)n[nH]2)c(=O)c2ccc(C)nc21
- IC50 (DNA gyrase): 9750 nM

Structure (SMILES): Fc1ccc(-c2nn3c(COc4cnccn4)nnc3s2)cc1
- MIC [4]: 1 µg/mL (≈ 3.05 µM)

Structure (SMILES): CCOC(=O)c1nc(Sc2nnc3c(Cl)cccn23)c2ccccc2n1
- EC50 [25]: 7.2 µg/mL (≈ 18.7 µM)

Structure (SMILES): CC(C)(C#N)c1cc(Cn2cncn2)cc(C(C)(C)C#N)c1
- ED50 [26]: 1090 nM

Structure (SMILES): O=C(CSc1nnc(COc2ccccc2)n1-c1ccc(Cl)cc1)Nc1nc2ccccc2s1
- Activity (Rattus norvegicus [27]): 84.43%

Structure (SMILES): Cn1c(=O)c2nc[nH]c2n(C)c1=O [THEOPHYLLINE]
- EC50 (Rattus norvegicus [17]): 425000 nM
